Data published in patent publication US5368841A, “Photodynamic therapy for the destruction of the synovium in the treatment of rheumatoid arthritis and the inflammatory arthritides” (The General Hospital Corporation, priority 1993, dated 1994).

Tests used:
[1] = rabbit, in vivo
[2] = system: HSF (human skin fibroblast); assay: Intracellular PpIX synthesis versus cell proliferation rate (Table 4); format: cell-based; settings: Dt 27 h
[3] = system: 5PAM (murine squamous cell carcinoma); assay: as above; format: cell-based; settings: Dt 14 h
[4] = system: EJ (human bladder carcinoma); assay: as above; format: cell-based; settings: Dt 23 h
[5] = system: NBT-2 (rat bladder carcinoma); assay: as above; format: cell-based; settings: Dt 13.5 h
[6] = rabbit, in vivo; remark: listed apart in the source
Experimental: Photochemotherapeutic synovectomy was performed on an antigen induced arthritis (AIA) model in 12 New Zealand white rabbits in a double control study. After a six week sensitization period, the joints of all animals were challenged bilaterally with an injection of albumin suspended in Freund's adjuvant. After five days, eight animals received systemic injections of 2 mg/kg of Photophrin® II. At 24 hours, four animals underwent bilateral arthrotomy procedures. The right knee joint of each was exposed to 100J/cm2 of 630 nm laser light over a 20 minute period. The left knees, not receiving the laser light application, served as controls. At 48 hours post HPD injection, an additional 4 animals underwent the identical operative procedures. Post-operatively, all animals were returned to their cages and allowed free movement. […] At one month post treatment, animals were sacrificed, knee joint synovium was then harvested, fixed, and stained with H and E for pathological evaluation.

[7] = set-up: species or system New Zealand White rabbits; settings: rabbit, in vivo
Experimental: (§1) Thirty New Zealand White rabbits weighing 2-4 kg were sensitized over a six week period with two cutaneous injections of ovalbumin suspended in Fruends adjuvant. At six weeks, the knee joints of all animals were challenged with an intra-articular injection of ovalbumin solution. Seven days following joint challenge, 25 animals received systemic intravenous injections with Photofrin® (2.0 mg/kg). Animals were killed at 6, 12, 24, 48 and 72 hours post Photofrin® injection and tissue samples were obtained of skin, quadriceps muscle, knee synovium, articular cartilage, meniscus, bone and tendon. Tissue weight was measured (Mettler AE 163 balance) and tissue samples were frozen at -90 degrees C. (Revco Ultra Low Freezer) until dye extraction.
The biodistribution of Photophrin® within synovium, articular cartilage and meniscus was also studied with fluorescence microscopy. At each of the harvest intervals of 6, 12, 24, 48 and 72 hours post injection, tissue specimens were obtained from experimental and control animals. Samples were placed in O.C.T. medium and frozen at -90 C. Unstained frozen sections at 10 microns were prepared using a cryostat (Microm, Inc., Heidelberg, Germany) and analyzed with a fluorescence microscope (Axiophot, Zeiss, Oberkochen, Germany) under epiluminescence of a mercury lamp (HBO 200 W/2, Zeiss). […]

[8] = set-up: species or system New Zealand White rabbits; settings: rabbit, in vivo; remark: listed apart in the source
Experimental: as §1
For extraction, tissue samples were homogenized (Homogenizer, Model PT 10/35, Brinkman Instruments, Co., Westbury, N.Y.) in 8 cc 0.1N NaOh solution. Each sample was centrifuged at 17,000 RPM (Sorvall RC-5B, refrigerated superspeed centrifuge, DuPont instruments) for 20 minutes. The fluorescence of 2 cc of supernatant was measured with a spectrofluorometer (Model Flourolog 2, Spex Industries, Inc., Edison, N.J.) and compared to that of standard solutions of Photofrin® with known concentration, and Photofrin® mixed with supernatant of extracted control quadriceps muscle. The excitation wavelength 366 nm and fluorescence spectrum between 600 and 700 nm was analyzed. Untreated animals will served as controls and for background correction.

NCC(=O)CCC(=O)O [ALA, δ-aminolevulinic acid]
ALA observed in the synovium [1]: large amounts

C=CC1=C(C)c2cc3[nH]c(cc4nc(cc5[nH]c(cc1n2)c(C)c5CCC(=O)O)C(CCC(=O)O)=C4C)c(C)c3C=C [PpIX, Protoporphyrin IX]
Intracellular PpIX (4 h) [2]: 40 a moles/cell | Intracellular PpIX (4 h) [3]: 160 a moles/cell | Intracellular PpIX (4 h) [4]: 100 a moles/cell | Intracellular PpIX (4 h) [5]: 160 a moles/cell

Photofrin®
side effects of synovium destruction [6]: without significant side effects | uptake by fluorescence microscopy in synovium [7]: significant uptake at 12, 24, 48 and 72 hours | selectivity of uptake in inflamed synovium [8]: selectively taken up in synovium at 24 and 48 hours post systemic injection | uptake in articular cartilage, meniscus, muscle and tendon [8]: insignificant | Photofrin® concentration in tissue (inflamed synovium) ([8]; iv, 2 mg/kg): greater than 4 micrograms/gram of tissue | time of maximum uptake in inflamed synovium ([8]; iv, 2 mg/kg): 48 h
